According to patent US7994190B2, “Modulators of glucocorticoid receptor, AP-1, and/or NF-κB activity and use thereof” (Bristol-Myers Squibb Company, priority 2006, dated 2011):

Key:
AP-1 = experiment: Cellular Transrepressional Assay (AP-1 luciferase reporter in A549 cells); assay type: cell-based; conditions: A549 cell stably transfected with pAP-1-Luc, 10 ng/ml PMA, 7 hours; for AP-1 Max % inh (Cellular Transrepression Assay): maximum inhibition; for EC50: read-out: AP-1 EC50, nM (Cellular Transrepression Assay)
Protocol: Cellular Transrepressional Assay
To measure the ability of test molecules to inhibit AP-1 induced transcriptional activity, an A549 cell was utilized which was stably transfected with a plasmid containing 7×AP-1 DNA binding sites (pAP-1-Luc plasmid, Stratagene Co. La Jolla, Calif.) followed by the gene for luciferase. Cells were activated with 10 ng/ml of […] (PMA) plus or minus test molecules for 7 hours. After 7 hours a luciferase reagent was added to measure luciferase enzymatic activity in the cell. After a 10 minute incubation of luciferase reagent with cells, luminescence was measured in a TopCount luminescence counter. Repression of AP-1 activity was calculated as the percentage decrease in the signal induced by PMA alone. Test molecules were analyzed in the concentration range from 0.1 nM to 40 μM. EC50s were determined by using standard curve fitting methods such as Excel fit (Microsoft Co.).

[1] = target: T1, human glucocorticoid receptor (Homo sapiens, UniProt P04150); experiment: Glucocorticoid Receptor Binding Assay (fluorescence polarization competitor kit); conditions: purified human recombinant full-length GR 2 nM, 1 nM Fluormone GS Red, 2 h room temperature
T1 construct: purified human recombinant full-length glucocorticoid receptor (2 nM); purchased Invitrogen Part #2893
T1 sequence (P04150 1-777): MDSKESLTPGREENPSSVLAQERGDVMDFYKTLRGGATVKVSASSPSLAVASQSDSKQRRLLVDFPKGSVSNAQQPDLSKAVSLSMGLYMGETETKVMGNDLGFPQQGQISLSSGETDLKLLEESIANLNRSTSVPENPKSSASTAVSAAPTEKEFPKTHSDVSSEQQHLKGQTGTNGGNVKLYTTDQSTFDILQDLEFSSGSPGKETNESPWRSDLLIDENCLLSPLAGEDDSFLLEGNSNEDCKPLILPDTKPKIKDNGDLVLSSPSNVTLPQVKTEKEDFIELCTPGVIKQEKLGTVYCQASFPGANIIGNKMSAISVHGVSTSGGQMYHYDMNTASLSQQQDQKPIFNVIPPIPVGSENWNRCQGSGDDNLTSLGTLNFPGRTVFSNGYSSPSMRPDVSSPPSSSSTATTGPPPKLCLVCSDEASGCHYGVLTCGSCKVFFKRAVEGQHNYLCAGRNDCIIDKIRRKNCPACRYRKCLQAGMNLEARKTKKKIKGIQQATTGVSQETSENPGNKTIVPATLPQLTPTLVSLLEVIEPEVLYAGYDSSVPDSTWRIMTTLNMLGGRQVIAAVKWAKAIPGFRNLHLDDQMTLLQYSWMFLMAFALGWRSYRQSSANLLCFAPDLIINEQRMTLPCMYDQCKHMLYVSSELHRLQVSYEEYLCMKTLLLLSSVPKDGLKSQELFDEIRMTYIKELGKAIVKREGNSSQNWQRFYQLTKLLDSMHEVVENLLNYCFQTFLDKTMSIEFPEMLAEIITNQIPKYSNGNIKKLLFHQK
Protocol: Glucocorticoid Receptor Binding Assay
In order to assess the affinity of test compounds for the human glucocorticoid receptor, a commercially available kit was used (Glucocorticoid Receptor Competitor Assay Kit, Invitrogen Part #2893). Briefly, purified human recombinant full-length glucocorticoid receptor (2 nM) was mixed with fluorescently labeled glucocorticoid (1 nM Fluormone GS Red) in the presence or absence of test compound. After two hour incubation at room temperature in the dark, the fluorescence polarization (FP) of the samples was measured. […] Test compounds were analyzed in the concentration range from 8.5E-05 μM to 5 μM.

Structure (SMILES) | AP-1 Max % inh (Cellular Transrepression Assay) (AP-1) [%] | EC50 (AP-1) [nM] | Ki [1] [nM]
CC(C)(C(=O)Nc1nncs1)C(c1ccccc1)c1ccn2c(-c3ccccc3)ncc2c1 (stereo not shown) [Example 1, 2,2-Dimethyl-3-phenyl-3-(3-phenylH-imidazo[1,5-a]pyridin-7-yl)-N-(1,3,4-thiadiazol-2-yl)propanamide] | 63.58 | 112 | 
CC(C)(CNC(=O)C(F)(F)F)C(c1ccccc1)c1ccn2c(-c3ccccc3)ncc2c1 (stereo not shown) [Example 2, N-(2,2-Dimethyl-3-phenyl-3-(3-phenylH-imidazo[1,5-a]pyridin-7-yl)propyl)-2,2,2-trifluoroacetamide] |  |  | 16.5
CCOC(=O)NCC(C)(C)C(c1ccccc1)c1ccn2c(-c3ccccc3)ncc2c1 (stereo not shown) [Example 3, Ethyl 2,2-dimethyl-3-phenyl-3-(3-phenylH-imidazo[1,5-a]pyridin-7-yl)propylcarbamate] |  |  | 27.4
CC(C)(C(=O)Nc1nccs1)C(c1ccccc1)c1ccc2cncn2c1 (stereo not shown) [Example 4, 3-(H-Imidazo[1,5-a]pyridin-6-yl)-2,2-dimethyl-3-phenyl-N-(thiazol-2-yl)propanamide] |  |  | 13
CC(C)(C(=O)Nc1nccs1)C(c1ccccc1)c1ccc2c(-c3ccc(F)cc3)ncn2c1 (stereo not shown) [Example 5, 3-(1-(4-Fluorophenyl)H-imidazo[1,5-a]pyridin-6-yl)-2,2-dimethyl-3-phenyl-N-(thiazol-2-yl)propanamide] | 71.08 | 34.1 | 
CC(C)(C(=O)Nc1nccs1)C(c1ccccc1)c1ccc2c(Br)ncn2c1 (stereo not shown) [Example 6, 3-(1-BromoH-imidazo[1,5-a]pyridin-6-yl)-2,2-dimethyl-3-phenyl-N-(thiazol-2-yl)propanamide] |  |  | 30.2
CC(C)(C(=O)Nc1nccs1)C(c1ccccc1)c1ccc2c(-c3cccc(C#N)c3)ncn2c1 (stereo not shown) [Example 7, 3-(1-(3-Cyanophenyl)H-imidazo[1,5-a]pyridin-6-yl)-2,2-dimethyl-3-phenyl-N-(thiazol-2-yl)propanamide] |  |  | 17
CC(C)(C(=O)Nc1nccs1)C(c1ccccc1)c1ccc2nncn2c1 (stereo not shown) [Example 8, 3-([1,2,4]-Triazolo[4,3-a]pyridin-6-yl)-2,2-dimethyl-3-phenyl-N-(thiazol-2-yl)propanamide] |  |  | 169
CC(C)(C(=O)Nc1nccs1)C(c1ccccc1)c1ccn2c(-c3ccccc3)ncc2c1 (stereo not shown) [Example 9] | 67.35 | 10.1 | 
CC(C)(C(=O)NC1CC1)C(c1ccccc1)c1ccn2c(-c3ccccc3)ncc2c1 (stereo not shown) [Example 10] |  |  | 7.3
CC(C)(C(=O)Nc1nncs1)C(c1ccccc1)c1ccn2cncc2c1 (stereo not shown) [Example 11] |  |  | 27.1
CC(C)(C(=O)Nc1nccs1)C(c1ccccc1)c1ccn2cncc2c1 (stereo not shown) [Example 12] |  |  | 17.7
CC(C)(C(=O)Nc1nncs1)C(c1ccccc1)c1ccc2cncn2c1 (stereo not shown) [Example 13] |  |  | 19.5
CC(C)(C(=O)Nc1nncs1)C(c1ccccc1)c1ccc2c(-c3ccc(F)cc3)ncn2c1 (stereo not shown) [Example 14] | 55.80 | 43.6 | 
CC(C)(C(=O)Nc1nncs1)C(c1ccccc1)c1ccc2c(-c3cccc(C#N)c3)ncn2c1 (stereo not shown) [Example 15] |  |  | 22.6
CC(C)(C(=O)Nc1nccs1)C(c1ccccc1)c1ccc2c(-c3ccc(C#N)cc3)ncn2c1 (stereo not shown) [Example 16] |  |  | 26.2
CC(C)(C(=O)Nc1nccs1)C(c1ccccc1)c1ccc2c(-c3ccc(F)cc3F)ncn2c1 (stereo not shown) [Example 18] | 55.81 | 13 | 
CC(C)(C(=O)Nc1nncs1)C(c1ccccc1)c1ccc2c(-c3ccc(F)cc3F)ncn2c1 (stereo not shown) [Example 19] | 45.65 | 16 | 
CC(C)(C(=O)Nc1nccs1)C(c1ccccc1)c1ccc2c(-c3ccc(F)c(Cl)c3)ncn2c1 (stereo not shown) [Example 20] |  |  | 65.9
CC(C)(C(=O)Nc1nncs1)C(c1ccccc1)c1ccc2c(-c3ccc(F)c(Cl)c3)ncn2c1 (stereo not shown) [Example 21] |  |  | 46.6
CC(C)(C(=O)Nc1nncs1)C(c1ccccc1)c1ccc2c(-c3cccc(CO)c3)ncn2c1 (stereo not shown) [Example 22] |  |  | 12.2
Cc1cscc1-c1ncn2cc(C(c3ccccc3)C(C)(C)C(=O)Nc3nncs3)ccc12 (stereo not shown) [Example 23] |  |  | 36
CC(C)(C(=O)Nc1nncs1)C(c1ccccc1)c1ccc2nncn2c1 (stereo not shown) [Example 24] |  |  | 327
Cc1nnc2ccc(C(c3ccccc3)C(C)(C)C(=O)Nc3nccs3)cn12 (stereo not shown) [Example 25] |  |  | 2360
Cc1nnc2ccc(C(c3ccccc3)C(C)(C)C(=O)Nc3nncs3)cn12 (stereo not shown) [Example 26] |  |  | 5450
